From patent US9505728B2, “Triazolone compounds and uses thereof” (INCEPTION 2, INC., priority 2012, dated 2016) come the findings set out here.

The target in the experiment is T1, Human PPARα (Homo sapiens, UniProt Q07869).
T1 construct: host or cells: proprietary non-human mammalian cells
T1 sequence (Q07869 1-468): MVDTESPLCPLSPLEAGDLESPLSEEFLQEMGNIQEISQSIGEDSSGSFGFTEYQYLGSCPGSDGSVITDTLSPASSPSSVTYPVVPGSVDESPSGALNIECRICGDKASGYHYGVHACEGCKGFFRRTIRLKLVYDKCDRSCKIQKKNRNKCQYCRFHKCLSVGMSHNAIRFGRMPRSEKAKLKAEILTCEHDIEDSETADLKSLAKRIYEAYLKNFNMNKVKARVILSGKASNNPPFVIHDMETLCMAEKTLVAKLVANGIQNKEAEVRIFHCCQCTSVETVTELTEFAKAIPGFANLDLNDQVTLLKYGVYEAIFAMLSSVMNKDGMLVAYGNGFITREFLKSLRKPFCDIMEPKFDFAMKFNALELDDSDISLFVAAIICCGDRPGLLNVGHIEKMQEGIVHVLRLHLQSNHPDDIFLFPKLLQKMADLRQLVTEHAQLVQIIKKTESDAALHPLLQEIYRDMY
Briefly: Human PPARα Reporter Assay (luciferase). Format: cell-based. The conditions noted are these: human PPARα reporter cells, overnight incubation, antagonism; read-out: Luciferase IC50. The procedure, abridged:
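Agonist or antagonist activity read as luciferase light from engineered reporter cells carrying human PPARα and a responsive reporter gene. Cells got compound immediately on dispensing, incubated overnight, then treatment media swapped for luciferase detection reagent.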
A general note: A reporter such as luciferase makes a cellular process visible.

Structures are written as SMILES.

The IC50 is the concentration that inhibits the measured activity by half. With `CCn1c(CCCc2ccc(-c3ccc(OC)c(CC(=O)O)c3)c(C(F)(F)F)c2)nn(Cc2ccc(C(C)(C)C)cc2)c1=O` [Example 150, 2-(4′-(3-(1-(4-(tert-Butyl)benzyl)-4-ethyl-5-oxo-4,5-dihydro-1H-1,2,4-triazol-3-yl)propyl)-4-methoxy-2′-(trifluoromethyl)-[1,1′-biphenyl]-3-yl) acetic acid], the 50% inhibitory concentration (IC50) was found to be 126 nM.
Turning to `CCn1c(CCCc2ccc(-c3cncc(NS(=O)(=O)c4ccccc4)c3)cc2)nn(Cc2ccc(C(C)(C)C)cc2)c1=O` [Example 117, N-(5-(4-(3-(1-(4-(tert-Butyl)benzyl)-4-ethyl-5-oxo-4,5-dihydro-1H-1,2,4-triazol-3-yl)propyl)phenyl)pyridin-3-yl)benzenesulfonamide], the IC50 was determined as 799 nM.
For `CC(C)n1c(CCCc2ccc(-c3cccc(CC(=O)O)c3)cc2)nn(Cc2ccc(C(C)(C)C)cc2)c1=O` [Example 31, 2-(4′-(3-(1-(4-(tert-Butyl)benzyl)-4-isopropyl-5-oxo-4,5-dihydro-1H-1,2,4-triazol-3-yl)propyl)-[1,1′-biphenyl]-3-yl)acetic acid], the IC50 was determined as 1960 nM.
As to `CCn1c(CCCc2ccc(-c3ccc(OCC4CC4)c(CC(=O)O)c3)cc2)nn(Cc2ccc(C(C)(C)C)cc2)c1=O` [Example 49, 2-(4′-(3-(1-(4-(tert-Butyl)benzyl)-4-ethyl-5-oxo-4,5-dihydro-1H-1,2,4-triazol-3-yl)propyl)-4-(cyclopropylmethoxy)-[1,1′-biphenyl]-3-yl)acetic acid], the IC50 worked out at 69 nM.
With `CCn1c(CCCc2ccc(-c3ncc(NS(=O)(=O)c4ccccc4)cn3)cc2)nn(Cc2ccc(C(C)(C)C)cc2)c1=O` [Example 108, N-(2-(4-(3-(1-(4-(tert-Butyl)benzyl)-4-ethyl-5-oxo-4,5-dihydro-1H-1,2,4-triazol-3-yl)propyl)phenyl)pyrimidin-5-yl)benzenesulfonamide], the IC50 is 165 nM.
The value for `CCn1c(CCCc2ccc(-c3ccc(OC)c(N)c3)cc2)nn(Cc2ccc(C(C)(C)C)cc2)c1=O` [Example 147, 3-(3-(3′-Amino-4′-methoxy-[1,1′-biphenyl]-4-yl)propyl)-1-(4-(tert-butyl)benzyl)-4-ethyl-1H-1,2,4-triazol-5(4H)-one] was 85 nM.
The same measure for `CCn1c(CCCc2ccc(-c3cccc(-c4nnn[nH]4)c3)cc2)nn(Cc2ccc(C(C)(C)C)cc2)c1=O` [Example 29, 3-(3-(3′-(1H-Tetrazol-5-yl)-[1,1′-biphenyl]-4-yl)propyl)-1-(4-(tert-butyl)benzyl)-4-ethyl-1H-1,2,4-triazol-5(4H)-one]: 1190 nM.
The same measure for `COc1ccc(-c2ccc(CCCc3nn(Cc4ccc(C(C)(C)C)cc4)c(=O)n3CC(F)(F)F)cc2)cc1CC(=O)O` [Example 55, 2-(4′-(3-(1-(4-(tert-Butyl)benzyl)-5-oxo-4-(2,2,2-trifluoroethyl)-4,5-dihydro-1H-1,2,4-triazol-3-yl)propyl)-4-methoxy-[1,1′-biphenyl]-3-yl)acetic acid]: 250 nM.
For `CCn1c(CCCc2ccc(-c3cc(CC(=O)O)ccc3OC)cc2)nn(Cc2ccc(C(C)(C)C)cc2)c1=O` [Example 20, 2-(4′-(3-(1-(4-(tert-Butyl)benzyl)-4-ethyl-5-oxo-4,5-dihydro-1H-1,2,4-triazol-3-yl)propyl)-6-methoxy-[1,1′-biphenyl]-3-yl)acetic acid], the IC50 was determined as 1830 nM.
The value for `CCn1c(CCCc2ccc(-c3cncc(NS(=O)(=O)c4ccccc4)n3)cc2)nn(Cc2ccc(C(C)(C)C)cc2)c1=O` [Example 129, N-(6-(4-(3-(1-(4-(tert-Butyl)benzyl)-4-ethyl-5-oxo-4,5-dihydro-1H-1,2,4-triazol-3-yl)propyl)phenyl)pyrazin-2-yl)benzenesulfonamide] was 36 nM.
As to `CCn1c(CCCc2ccc(-c3ccc(NS(=O)(=O)c4ccc(C(F)(F)F)cc4)cn3)cc2)nn(Cc2ccc(C(C)(C)C)cc2)c1=O` [Example 86, 1-{[4-(tert-Butyl)phenyl]methyl}-4-ethyl-3-(3-{4-[5-({[4-(trifluoromethyl)phenyl]sulfonyl}amino)(2-pyridyl)]phenyl}propyl)-1,2,4-triazolin-5-one], the IC50 came to 971 nM.
The value for `CCn1c(CCCc2ccc(-c3cc(NS(C)(=O)=O)ccn3)cc2)nn(Cc2ccc(C(C)(C)C)cc2)c1=O` [Example 40, 1-{[4-(tert-Butyl)phenyl]methyl}-4-ethyl-3-[3-(4-{4-[(methylsulfonyl)amino](2-pyridyl)}phenyl)propyl]-1,2,4-triazolin-5-one] was 408 nM; that for `CCn1c(CCCc2ccc(-c3cccc(NS(=O)(=O)N(C)C)c3)cc2)nn(Cc2ccc(C(C)(C)C)cc2)c1=O` [Example 107, 3-{3-[4-(3-{[(Dimethylamino)sulfonyl]amino}phenyl)phenyl]propyl}-1-{[4-(tert-butyl)phenyl]methyl}-4-ethyl-1,2,4-triazolin-5-one] was 683 nM.
